These results are taken from ChEMBL document CHEMBL1152080, “Linear sesterterpenes from the Caribbean sponge Thorecta horridus with inflammatory activity” (1991).

Assay type in all cases: functional
Experiment [1] is filed under the species Rattus norvegicus. The experiment is described as follows: Percent release of histamine from rat peritoneal cells was determined at 10 ug/mL concentration of compound.
The species named for experiment [2] is Rattus norvegicus. The experiment is described as follows: Percent release of histamine from rat peritoneal cells was determined at 1 ug/mL concentration of compound.
In experiment [3] the test system is Rattus norvegicus. The experiment can be described thus: Compound was evaluated in vivo for its inflammatory activity in rat paw pretreated with mepyramine (2.5 mg/kg) and methysergide (3 mg/Kg)after administration of compound (1 mg) and percent edema was reported.
The species entered for experiment [4] is Rattus norvegicus. The experiment can be described thus: Percent release of histamine from rat peritoneal cells was determined at 0.1 ug/mL concentration of compound.

For the molecule `CC(C)=CCC/C(C)=C/CC/C(C)=C/CC/C(C)=C/CCC1=CC(=O)OC1`, the Histamine release in the experiment listed under Rattus norvegicus [1] amounted to 30%; in the experiment listed under Rattus norvegicus [2], 11%; in the experiment listed under Rattus norvegicus [4], 4%. Moreover, the Supression in the experiment with Rattus norvegicus [3] amounted to 65%.
